From US7723304B2, “Systems for delivery and release of angiotensin-(1-7)” (Universidade Federal De Minas Gerais—UFMG, priority 2001, dated 2010)

Columns and labels:
[1] = system: G protein-coupled receptor, MAS; assay: binding of labeled angiotensin-(1-7) in mouse kidney slices (normal or MAS knockout); conditions: MAS knockout mice, 4 °C, autoradiography or fluorescent microscopy
Description: (§1) After incubation for variable intervals at 4 °C the slices were exposed to autoradioghraphic films or analysed by flourescent microscopy. […] The functional test for the absence of binding in knockout mice was made using the water diuresis model (administration of 5% of the body weight, of H2O).

[2] = target: T1, G protein-coupled receptor, MAS (Mus musculus, UniProt P30554); assay: as above; conditions: wild type mice
T1 construct: from tissue; host or cells: mouse kidney slices (wild type; MAS knockout as control)
T1 sequence (P30554 1-324): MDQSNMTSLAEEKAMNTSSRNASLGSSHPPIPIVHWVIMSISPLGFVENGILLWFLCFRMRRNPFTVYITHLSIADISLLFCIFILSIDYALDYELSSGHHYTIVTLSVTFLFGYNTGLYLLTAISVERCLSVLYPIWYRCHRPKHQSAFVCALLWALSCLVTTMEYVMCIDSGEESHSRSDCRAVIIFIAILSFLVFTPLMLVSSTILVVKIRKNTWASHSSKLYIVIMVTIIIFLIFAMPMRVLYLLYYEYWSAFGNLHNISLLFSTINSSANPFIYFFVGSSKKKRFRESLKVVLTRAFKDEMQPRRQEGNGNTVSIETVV
Description: as §1

[3] = target: T1, G protein-coupled receptor, MAS; assay: water diuresis model in wild type and MAS knockout mice; assay type: in vivo; conditions: wild type mice, 4 pmol/10 g BW, water load 5% of body weight
Description: (§2) Angiotensin-(1-7) labeled with 125I or rhodamine-angiotensin-(1-7), fluorescent, were incubated with mouse kidney slices from normal or MAS knockout animals. After incubation for variable intervals at 4 °C the slices were exposed to autoradioghraphic films or analysed by flourescent microscopy. In the knockout mice the specif binding for angiotensin-(1-7) disappeared while the binding for Ang II or Ang IV, used as controls, was inaltered. The Ang_(1-7) binding in kidney slices of wild type mice was displaced by the analogues D-Ala^7-Angiotensin-(1-7) e D-Pro^7-Angiotensin-(1-7). The functional test for the absence of binding in knockout mice was made using the water diuresis model (administration of 5% of the body weight, of H2O). […] In MAS knockout mice the antidiuretic effect of Ang-(1-7) was absent.

[4] = system: G protein-coupled receptor, MAS; assay: as above; assay type: in vivo, mouse; conditions: MAS knockout mice, water load 5% of body weight
Description: as §2

[5] = target: ACE (Homo sapiens, UniProt P12821); conditions: read-out: IC50 for inhibition of ACE; cited from earlier work
ACE, sequence (P12821 30-1306, species assumed): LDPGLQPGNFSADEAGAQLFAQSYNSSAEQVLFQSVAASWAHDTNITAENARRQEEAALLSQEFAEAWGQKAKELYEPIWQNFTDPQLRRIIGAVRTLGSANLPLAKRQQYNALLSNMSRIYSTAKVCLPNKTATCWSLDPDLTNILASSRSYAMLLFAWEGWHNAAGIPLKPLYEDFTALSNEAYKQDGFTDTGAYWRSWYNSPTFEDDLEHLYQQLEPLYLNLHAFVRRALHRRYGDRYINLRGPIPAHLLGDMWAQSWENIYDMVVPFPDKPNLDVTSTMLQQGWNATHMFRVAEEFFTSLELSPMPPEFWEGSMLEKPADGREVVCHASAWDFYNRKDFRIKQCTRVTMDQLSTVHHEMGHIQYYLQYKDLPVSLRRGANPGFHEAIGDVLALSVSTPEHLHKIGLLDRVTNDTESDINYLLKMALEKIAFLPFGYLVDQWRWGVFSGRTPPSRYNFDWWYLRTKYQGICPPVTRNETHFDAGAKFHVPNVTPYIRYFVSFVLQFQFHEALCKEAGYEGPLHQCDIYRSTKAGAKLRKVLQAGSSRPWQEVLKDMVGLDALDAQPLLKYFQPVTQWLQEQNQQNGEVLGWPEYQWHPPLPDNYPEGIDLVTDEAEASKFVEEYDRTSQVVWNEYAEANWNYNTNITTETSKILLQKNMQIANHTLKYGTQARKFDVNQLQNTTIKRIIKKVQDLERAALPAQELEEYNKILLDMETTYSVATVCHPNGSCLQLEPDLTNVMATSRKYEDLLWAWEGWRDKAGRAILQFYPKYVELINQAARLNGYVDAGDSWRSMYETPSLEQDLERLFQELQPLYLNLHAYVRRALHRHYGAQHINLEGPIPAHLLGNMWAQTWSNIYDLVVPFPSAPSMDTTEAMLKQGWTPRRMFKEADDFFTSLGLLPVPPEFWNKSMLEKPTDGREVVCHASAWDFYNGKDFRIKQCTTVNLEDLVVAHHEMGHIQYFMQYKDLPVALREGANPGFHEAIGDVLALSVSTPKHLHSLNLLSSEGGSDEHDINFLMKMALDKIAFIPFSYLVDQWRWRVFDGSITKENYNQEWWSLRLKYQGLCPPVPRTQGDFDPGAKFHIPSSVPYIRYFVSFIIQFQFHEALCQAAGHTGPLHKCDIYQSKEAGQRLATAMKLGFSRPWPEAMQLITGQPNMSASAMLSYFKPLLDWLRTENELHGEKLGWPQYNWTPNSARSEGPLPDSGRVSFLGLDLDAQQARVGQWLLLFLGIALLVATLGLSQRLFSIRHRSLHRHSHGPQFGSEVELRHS

[6] = system: Wistar rats; conditions: free (not encapsulated) peptide, 25-50 ng in the RVLM, previous studies; cited from earlier work

Molecule | binding in kidney slices of MAS knockout mice [1] | displacement of Ang-(1-7) binding in kidney slices [2] | also measured
CC[C@H](C)[C@H](NC(=O)[C@H](Cc1ccc(O)cc1)NC(=O)[C@@H](N)C(C)C)C(=O)N[C@@H](Cc1cnc[nH]1)C(=O)N1CCC[C@H]1C(=O)N[C@@H](Cc1ccccc1)C(=O)O [Ang IV] | inaltered |  | 
D-[Ala^7]-Ang-(1-7) [D-Ala^7-Angiotensin-(1-7)] |  | displaced | 
DRVYIHP [Ang-(1-7), Asp-Arg-Val-Tyr-Ile-His-Pro] | disappeared |  | urine volume (antidiuresis) [3]: reduction of the urine volume; antidiuretic effect [4]: absent; IC50 [5]: ~1000 nM; duration of increase of PAM [6]: approximately 10 min; increase of PAM [6]: 15 mmHg

More lines, main results first:

binding in kidney slices of MAS knockout mice [1] | displacement of Ang-(1-7) binding in kidney slices [2] | Molecule | also measured
inaltered |  | Ang II: main peptide of RAS, used as binding control (DRVYIHPF; Angiotensin-2; UniProt P01019 25-32, looked up) | 
 | displaced | D-Pro7-Ang-(1-7) [D-Pro^7-Angiotensin-(1-7)] | 
